One data set in a line: Solubility. Format: physicochemical. The conditions noted are these: read-out: Löslichkeit.
Data set [1] in a line: Osmolality of aqueous solutions. The conditions noted are these: Lösungen in Wasser mit 300 mg I/ml bei 37°C. Format: physicochemical. How it is done: (§1) Die Osmolalität und Viskosität beziehen sich auf Lösungen in Wasser mit 300 mg I/ml bei 37°C.
The nature of data set [2]: Viscosity of aqueous solutions. Format: physicochemical. The conditions noted are these: Lösungen in Wasser mit 300 mg I/ml bei 37°C. On the procedure:
as §1

The conditions of data set [3]: bei 300 mg I/ml; commercial contrast agents; cited from earlier work.

For `CC(=O)N(CCCC(O)CO)c1c(I)c(C(=O)N(C)C)c(I)c(N(CCCC(O)CO)C(C)=O)c1I` (stereo not shown) [IX, 3,5-Bis(N-(4,5-dihydroxypentyl)-acetamido)-2,4,6-triiodbenzoesäure-N,N-dimethylamid], the solubility in the data set “Solubility” was more than 1000 mg/mL. Besides, in data set [1], the Osmolalität was 500 mOsmol/kg. In data set [2], the Viskosität was 6,3 cps.

For the molecule `CC(=O)Nc1c(I)c(C(=O)N[C@H]2C(O)O[C@H](CO)[C@@H](O)[C@@H]2O)c(I)c(N(C)C(C)=O)c1I` (stereo partly shown) [Metrizamid], the Osmolalitäten in data set [3] is reported as 485 mOsmol/kg.

Consider `CNC(=O)c1c(I)c(N(CCC(O)CO)C(C)=O)c(I)c(N(CCC(O)CO)C(C)=O)c1I` (stereo not shown) [VI, 3,5-Bis(N-(3,4-dihydroxybutyl)-acetamido)-2,4,6-triiodbenzoesäure-N-methylamid], for which the solubility in “Solubility” was more than 1000 mg/mL. For the same molecule, the Osmolalität in data set [1] is reported as 545 mOsmol/kg. In addition, the Viskosität in data set [2] is recorded as 5,3 cps.

Turning to `CC(=O)N(CCC(O)CO)c1c(I)c(C(=O)N(C)C)c(I)c(N(CCC(O)CO)C(C)=O)c1I` (stereo not shown) [VII, 3,5-Bis(N-(3,4-dihydroxybutyl)-acetamido)-2,4,6-triiodbenzoesäure-N,N-dimethylamid], the solubility in the data set “Solubility” is more than 1000 mg/mL. Further, the Osmolalität in data set [1] worked out at 535 mOsmol/kg. Further, the Viskosität in data set [2] is 4,5 cps.

Take `CNC(=O)c1c(I)c(N(CCCC(O)CO)C(C)=O)c(I)c(N(CCCC(O)CO)C(C)=O)c1I` (stereo not shown) [VIII, 3,5-Bis(N-(4,5-dihydroxypentyl)-acetamido)-2,4,6-tri iodbenzoesäure-N-methylamid]: in the data set “Solubility”, the solubility was more than 1000 mg/mL. For the same molecule, in data set [1], the Osmolalität was determined as 330 mOsmol/kg. In addition, in data set [2], the Viskosität was 7,5 cps.

Consider `CNC(=O)c1c(I)c(C(=O)NCC(O)CO)c(I)c(N(CCCC(O)CO)C(C)=O)c1I` (stereo not shown) [XIX, 5-(N-(4,5-dihydroxypentyl)-acetamido)-2,4,6-triiod-N-methyl-N'-(2,3-dihydroxypropyl)-isophthaldiamid], for which the solubility in “Solubility” was more than 1000 mg/mL. The Osmolalität in data set [1] was 405 mOsmol/kg. Also, the Viskosität in data set [2] is given as 5,8 cps.

`CC(=O)N(CCC(O)CO)c1c(I)c(C(=O)N(C)CCN(C)C(=O)c2c(I)c(N(CCC(O)CO)C(C)=O)c(I)c(N(CCC(O)CO)C(C)=O)c2I)c(I)c(N(CCC(O)CO)C(C)=O)c1I` (stereo not shown) [XV]: in the data set “Solubility”, the solubility was more than 1000 mg/mL. In data set [1], this molecule yielded an Osmolalität of 255 mOsmol/kg. For the same molecule, in data set [2], the Viskosität was 16,5 cps.

The record behind these values is patent EP0530343B1, “WATER SOLUBLE, NON-IONIC X-RAY CONTRASTING AGENTS AND PROCESS FOR PRODUCING THE SAME” (Dr. Franz Köhler Chemie GmbH, priority 1991, dated 1992).
